Results as given in patent US12667584B2, “Adenosine analog and its use in regulating the circadian clock” (NATIONAL INSTITUTE OF BIOLOGICAL SCIENCES, BEIJING, priority 2017, dated 2026).

Assays:
[1] = test system: Per2-Luc reporter U2OS cells (D15); assay: Circadian phase shift cell assay in D15 cells, 384 well plate, Tecan, with or without pentostatin; type: cell-based, human
Per2:luc U2OS cells = assay: Real-time monitoring of circadian oscillation in lumicycle, Per2:luc U2OS cells; type: cell-based, human
Procedure: Cell culture, drug treatment and Real-Time Monitoring of Circadian Oscillations: Per2-Luc reporter U2OS cells (D15) and Bmal1-Luc reporter U2OS cells (C26) cells were kept in DMEM medium (Gibco), supplemented with 10% FBS (Gibco) and 1% penicillin streptomycin mixture (Gibco). For Circadian Oscillation monitored with lumicycle (Actimetrics), cells were seeded at the density of 10^6 per 3.5 cm dish (Z688851-30EA). The medium was changed into XM medium (PH7.2, 10 mM HEPES, 350 mg/I bicarbonate, 1×B27, 100 IU/ml penicillin, 100 μg/ml streptomycin, 10 μg/ml gentamycin, and 100 μM d-Luciferin) 2 days after cell seeding. 3.5 cm dish was then sealed with high-vacuum grease (Dow Corning) and microscope cover glass, and transferred into lumicycle which was placed in an incubator (37° C.). For Drug treatment, 3.5 cm dish was taken out from lumicycle quickly at indicated time. After chemical was added into the medium, the dish was sealed again and put back into lumicycle. For Circadian Oscillation monitored with Tecan (Perkinelmer), cells were seeded at the density of […] per well for 384-well plate (CLS3610-48EA). 2 days later, the medium was changed into premixed XM medium with different chemicals with or without pentostatin (5 μg/ml). The plate was then sealing with sealing film (Sangon Biotech) and put into Tecan. Data from cells were collected in the Tecan luminometer at 37° C. for 5˜7 days.
The inventors conducted a chemical screen using the human osteosarcoma U2OS cell line so as to discover small molecules that modify the phase of the intracellular clock in mammals. In the primary screen, the inventors used two reporter lines of U2OS harboring a luciferase gene under control of either Per2 or Bmal1 promoter (named Per2-dLuc or Bmal1-dLuc cells), and set the threshold for at least 6 h phase-changes with no apparent amplitude-reduction in both cell lines. […] An institutional pilot chemical library consisting of approximately 10,000 small molecules was applied in this study. […] The inventors set to allow a free-run of the clock before administration of the compound over the course in order to eliminate the possibility that this phase-changing phenomenon was due to a combinative phenotype of medium-change plus the compound effect.
Circadian clock is a transcriptional based feedback loop, however different clock genes contain different cis-element and may show different response to the same stimulation. […] Since the close similar structure with adenosine and potential function of inhibiting transcription by preventing mRNA elongation, we tested whether adenosine and other deoxynucleoside could shift circadian phase. […] Therefore we further tested whether cordycepin utilize adenosine transporter to enter cell or utilize adenosine deaminase to degrade.
One prominent character of zeitgeiber is phase dependent function. Therefore, we further tested whether cordycepin also has the character.

Per2::Luc = assay: In-vivo imaging of luciferase signal in Per2::Luc knockin mice; parameters: species or system mouse
Procedure: Drug injection and in-vivo imaging analysis: mPer2Luciferase knockin mice were housed in Germ Free Animal Facility, under 12 h light/dark photoperiod, with food and water ad libitum. 8 week-old male mPer2Luciferase knockin mice were intraperitoneal injection with 15 mg/kg bw CA03 or DMSO. CA03 was firstly dissolved in DMSO to the concentration of 200 μg/μl, then dilute with saline to the final concentration of 1000 μg/ml for intraperitoneal injection. 1 h later, d-luciferin (Gold Bio.) was intraperitoneally injected. Relative luciferase activity were imaged on IVIS Lumina III system and analysed with in-vivo imaging software (PerkinElmer). […]
Next, the inventors sought to determine whether the clock effects of cordycepin can be recaptured in vivo. […] This observation is especially true when nascent RNA levels were measured, highlighting the first-order, inductive response in E-box genes as previously proposed(FIG. 2B).
To test whether cordycepin function in vivo, we firstly tested luciferase signal level by live imaging of Per2:LUC mice after intraperitoneal injection of 15 mg/kg cordycepin or DMSO. […] Prior evaluation the jet-leg cure ability of cordycepin, we detected whether cordycepin and it's prodrug pro-CA03 can penetrate BBB. We injected cordycepin or pro-CA03 via tail vein and time course sampled CSF and analyzed cordycepin pro-CA03 level with HPLC-MASS method. […]

[2] = Sleep phenotype by locomoter activity and electrophysiological recording; details: in vivo
Description: This is considered as a positive side-effect to adapt to jet-lag, which causes more problems on the sleep than arousal side. […] This work provide immediate and important practical applications, including use the disclosed compounds to assist humans who suffer jet-lag or shift-work can use this drug to adjust the clock-phase, and simultaneously tune the sleep-wake pattern, particularly coupled with caffeine ingestion.

Structure (SMILES): Nc1ncnc2c1ncn2[C@@H]1O[C@H](CO)C[C@H]1O [Cordycepin, 3′-deoxy-adenosine]
- concentration of eliciting 12 h phase shift (potency) ([1]; pentostatin containing medium (5 μg/ml)): 200 nM
- concentration of eliciting 12 h phase shift (potency) ([1]; pentostatin containing medium (5 μg/ml), listed as cordycepin): 180 nM
- concentration of eliciting 12 h phase shift (potency) ([1]; without pentostatin): 25000 nM
- phase shift (Per2:luc U2OS cells; 100 μM applied at CT10): 12 h
- phase shift (Per2:luc U2OS cells; 100 μM applied at CT 20): ~0 h
- Per2-dLuc phase shift (Per2:luc U2OS cells; applied at Per2 peak, 100 μM): 12 h
- Per2-dLuc phase shift (Per2:luc U2OS cells; applied at Per2 trough): 0 h
- amplitude of Per2-dLuc (Per2:luc U2OS cells; applied at Per2 trough): increase the amplitude
- increase of luciferase signal in liver compared with DMSO control (Per2::Luc; 15 mg/kg intraperitoneal): more than 4 folds
- time to induction of luciferase signal after drug administration (Per2::Luc; i.p. at ZT4): ≤ 1 h
- sleep phenotype [2]: leads to a sleep phenotype
